Measurements published in US5695970A, “Glucan lyase producing 1,5-anhydrofructose” (priority 1992, dated 1997).
Entries after “also recorded” stand apart in the source; their conditions may differ. Each block holds one compound with its values, some of them ahead of it.

Columns and labels:
α-1,4-glucan lyase [1] = experiment: Inhibition studies of α-1,4-glucan lyase activity; format: biochemical, Gracilariopsis lemaneiformis; conditions: for inhibition of enzymic activity: 0.1M; for inhibition of the enzyme: 50mM; for inhibition of the algal enzyme (in words): summary statement, no concentration
Method: (§1) The reaction mixture for the assay of α-1,4-glucan lyase was composed of 240 μl 62.5 mM Mops-NaOH containing 6 mg soluble starch (pH 6.2), the enzyme preparation and distilled water to a final volume of 300 μl. The reaction was carried out at 30° C. for 10-30 min. Liberated 1,5-anhydrofructose was determined by monitoring the absorbance at 546 nm after the addition of 3,5-dinitrosalicylic acid reagent. Soluble starch in the reaction mixture may be replaced by other substrates and the final substrate concentration may be varied as indicated in the text. The reaction time and enzyme concentration used in enzyme activity assay have been chosen to ensure the linearity of the reaction rate. One unit of α-1,4-glucan lyase activity is defined as the amount of enzyme which liberates 1μmol of 1,5-anhydrofructose min^-1 under the conditions described above.

α-1,4-glucan lyase [2] = experiment: Substrate specificity of α-1,4-glucan lyase, long term incubation (24 h), continuation of Table IV; format: biochemical, Gracilariopsis lemaneiformis; conditions: for activity of the lyase with the substrate (in words): long term incubation at 30° C.; for Product released: 24 h; for release of 1,5-anhydrofructose and glucose checked by TLC on Silica gel 60: after 24 h of incubation
Method: The incubation time was 24 h.
as §1

[3] = substrate 4 mg ml^-1, 1.64 μg enzyme
[4] = inhibitor 2 mM, amylopectin as substrate
[5] = inhibitor 2 mM, maltose as substrate

inhibition of enzymic activity (α-1,4-glucan lyase [1]; amylopectin as substrate): no inhibition
inhibition of enzymic activity (α-1,4-glucan lyase [1]; maltose as substrate): no inhibition
Compound: O[C@H]1[C@H](O)[C@@H](O)[C@H](O)[C@@H](O)[C@H]1O [inositol]

inhibition of enzymic activity (α-1,4-glucan lyase [1]; amylopectin as substrate): no inhibition
inhibition of enzymic activity (α-1,4-glucan lyase [1]; maltose as substrate): no inhibition
Compound: OCC(O)CO [glycerol]

activity of the lyase with the substrate (in words) (α-1,4-glucan lyase [2]): able to degrade
Product released (α-1,4-glucan lyase [2]; [3]): 13452.8 nmol
Compound: OC[C@H]1O[C@H](O[C@H]2[C@H](O)[C@@H](CO)OC(O)[C@@H]2O)[C@H](O)[C@@H](O)[C@@H]1O (some centres unmarked) [Nigerose, nigerose]

activity of the lyase with the substrate (in words) (α-1,4-glucan lyase [2]): no activity
Product released (α-1,4-glucan lyase [2]; substrate 2 mM, 1.64 μg enzyme): 0 nmol
Compound: O=[N+]([O-])c1ccc(O[C@H]2O[C@H](CO)[C@@H](O)[C@H](O)[C@@H]2O)cc1 [PNPMan, p-introphenyl-α-D-mannoside]

inhibition of the enzyme (α-1,4-glucan lyase [1]; amylopectin as substrate): no inhibition
inhibition of the enzyme (α-1,4-glucan lyase [1]; maltose as substrate): no inhibition
Compound: [Cl-].[K+] [KCl]

inhibition of enzymic activity (α-1,4-glucan lyase [1]; amylopectin as substrate): no inhibition
inhibition of enzymic activity (α-1,4-glucan lyase [1]; maltose as substrate): no inhibition
Compound: xylose

inhibition of enzyme activity (α-1,4-glucan lyase [1]; inhibitor 0.165 mM, maltose as substrate): inhibit the activity completely
inhibition of enzyme activity (α-1,4-glucan lyase [1]; [4]): completely inhibited
inhibition of enzyme activity (α-1,4-glucan lyase [1]; [5]): completely inhibited
inhibition of the algal enzyme (in words) (α-1,4-glucan lyase [1]): strongly inhibited
Compound: OC[C@H]1NC[C@H](O)[C@@H](O)[C@@H]1O [Deoxynojirimycin, deoxynojirimycin]

Product released (α-1,4-glucan lyase [2]; [3]): 0 nmol
Compound: OC[C@H]1O[C@@H](O[C@H]2[C@H](O)[C@@H](O)C(O)O[C@@H]2CO)[C@H](O)[C@@H](O)[C@@H]1O (some centres unmarked) [Cellobiose, cellobiose]
release of 1,5-anhydrofructose and glucose checked by TLC on Silica gel 60 (α-1,4-glucan lyase [2]): No 1,5-anhydrofructose and glucose were released

activity of the lyase with the substrate (in words) (α-1,4-glucan lyase [2]): no activity
Product released (α-1,4-glucan lyase [2]; substrate 2 mM, 1.64 μg enzyme): 0 nmol
Compound: O=[N+]([O-])c1ccc(O[C@H]2O[C@H](CO)[C@H](O)[C@H](O)[C@H]2O)cc1 [PNPGal, p-nitrophenyl-α-D-galactoside]

Product released (α-1,4-glucan lyase [2]; [3]): 0 nmol
Compound: OC[C@H]1O[C@H](OC[C@H]2OC(O)[C@H](O)[C@@H](O)[C@@H]2O)[C@H](O)[C@@H](O)[C@@H]1O (some centres unmarked) [Isomaltose, isomaltose]
release of 1,5-anhydrofructose and glucose checked by TLC on Silica gel 60 (α-1,4-glucan lyase [2]): No 1,5-anhydrofructose and glucose were released

The remaining lines, values behind:

Compound: OC[C@@H](O)[C@@H](O)[C@H](O)[C@@H](O)CO [sorbitol]
inhibition of enzymic activity (α-1,4-glucan lyase [1]; amylopectin as substrate): no inhibition
inhibition of enzymic activity (α-1,4-glucan lyase [1]; maltose as substrate): no inhibition

Compound: [Cl-].[Cl-].[Mg+2] [MgCl2]
inhibition of the enzyme (α-1,4-glucan lyase [1]; amylopectin as substrate): no inhibition
inhibition of the enzyme (α-1,4-glucan lyase [1]; maltose as substrate): no inhibition

Compound: [Cl][Hg][Cl] [HgCl2]
inhibition of the algal enzyme (in words) (α-1,4-glucan lyase [1]): strongly inhibited

Compound: [Ca+2].[Cl-].[Cl-] [CaCl2]
inhibition of the enzyme (α-1,4-glucan lyase [1]; amylopectin as substrate): no inhibition
inhibition of the enzyme (α-1,4-glucan lyase [1]; maltose as substrate): no inhibition

Compound: Nc1ncnc2c1ncn2[C@@H]1O[C@H](COP(=O)(O)OP(=O)(O)O[C@H]2O[C@H](CO)[C@@H](O)[C@H](O)[C@H]2O)[C@@H](O)[C@H]1O [ADP-Glucose]
Product released (α-1,4-glucan lyase [2]; substrate 5 mM, 1.64 μg enzyme): 0 nmol

Compound: blocked p-nitrophenyl-α-D-maltoheptaoside [BPNPG7]
activity of the lyase with the substrate (in words) (α-1,4-glucan lyase [2]): very low degrading rate; also recorded: little or no activity
Product released (α-1,4-glucan lyase [2]; substrate 2 mM, 4.91 μg enzyme): 6.16 nmol

Compound: O=P(O)(O)O[C@H]1O[C@H](CO)[C@@H](O)[C@H](O)[C@H]1O [Glucose 1-Phosphate]
Product released (α-1,4-glucan lyase [2]; substrate 10 mM, 1.64 μg enzyme): 0 nmol

Compound: [Cl][Mn][Cl] [MnCl2]
inhibition of the enzyme (α-1,4-glucan lyase [1]; amylopectin as substrate): no inhibition
inhibition of the enzyme (α-1,4-glucan lyase [1]; maltose as substrate): no inhibition

Compound: arabinose
inhibition of enzymic activity (α-1,4-glucan lyase [1]; amylopectin as substrate): no inhibition
inhibition of enzymic activity (α-1,4-glucan lyase [1]; maltose as substrate): no inhibition

Compound: O=C(O)c1cc[c]([Hg][Cl])cc1 [PCMB, p-chloromercuribenzoic acid]
inhibition of enzyme activity (α-1,4-glucan lyase [1]; [4]): around 90%
inhibition of enzyme activity (α-1,4-glucan lyase [1]; [5]): around 90%
inhibition of the algal enzyme (in words) (α-1,4-glucan lyase [1]): strongly inhibited

Compound: OC[C@H]1O[C@H](OC[C@H]2O[C@H](O[C@H]3[C@H](O)[C@@H](O)C(O)O[C@@H]3CO)[C@H](O)[C@@H](O)[C@@H]2O)[C@H](O)[C@@H](O)[C@@H]1O (some centres unmarked) [Panose, panose]
Product released (α-1,4-glucan lyase [2]; [3]): 13465.6 nmol
